What was measured:
Test in all cases: Kinase selectivity panel
Format in all cases: biochemical
[1] = target: T1, Txk(h) (Homo sapiens, UniProt P42681); conditions: read-out: Inhibition(%) @ 1 µM RK-019
T1 construct: purchased Eurofins Discovery Services (KinaseProfiler)
Procedure, shortened: (§1)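 Selectivity profiling used one concentration (1 µM) in an ATP-site competition binding assay over 422 recombinant human kinases; data given as inhibition ratio.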

[2] = target: T2, MRCKβ(h) (Homo sapiens, UniProt Q9Y5S2); conditions: read-out: Inhibition(%) @ 1 µM RK-019
T2 construct: purchased Eurofins Discovery Services (KinaseProfiler)
Procedure, shortened: as §1

[3] = target: T3, ICK(h) (Homo sapiens, UniProt Q9UPZ9); conditions: read-out: Inhibition(%) @ 1 µM RK-019
T3 construct: purchased Eurofins Discovery Services (KinaseProfiler)
Procedure, shortened: as §1

[4] = target: T4, MST4(h) (Homo sapiens, UniProt Q9P289); conditions: read-out: Inhibition(%) @ 1 µM RK-019
T4 construct: purchased Eurofins Discovery Services (KinaseProfiler)
Procedure, shortened: as §1

[5] = target: T5, MARK4(h) (Homo sapiens, UniProt Q96L34); conditions: read-out: Inhibition(%) @ 1 µM RK-019
T5 construct: purchased Eurofins Discovery Services (KinaseProfiler)
Procedure, shortened: as §1

[6] = target: T6, HIPK4(h) (Homo sapiens, UniProt Q8NE63); conditions: read-out: Inhibition(%) @ 1 µM RK-019
T6 construct: purchased Eurofins Discovery Services (KinaseProfiler)
Procedure, shortened: as §1

[7] = target: T7, CaMKK2(h) (Homo sapiens, UniProt Q96RR4); conditions: read-out: Inhibition(%) @ 1 µM RK-019
T7 construct: purchased Eurofins Discovery Services (KinaseProfiler)
Procedure, shortened: as §1

[8] = target: T8, PKCη(h) (Homo sapiens, UniProt P24723); conditions: read-out: Inhibition(%) @ 1 µM RK-019
T8 construct: purchased Eurofins Discovery Services (KinaseProfiler)
Procedure, shortened: as §1

[9] = target: T9, Met(D1246N)(h) (Homo sapiens, UniProt P08581, D1228N); conditions: read-out: Inhibition(%) @ 1 µM RK-019
T9 construct: purchased Eurofins Discovery Services (KinaseProfiler)
Procedure, shortened: as §1

[10] = target: T10, TAF1L(h) (Homo sapiens, UniProt Q8IZX4); conditions: read-out: Inhibition(%) @ 1 µM RK-019
T10 construct: purchased Eurofins Discovery Services (KinaseProfiler)
Procedure, shortened: as §1

[11] = target: T11, DAPK2(h) (Homo sapiens, UniProt Q9UIK4); conditions: read-out: Inhibition(%) @ 1 µM RK-019
T11 construct: purchased Eurofins Discovery Services (KinaseProfiler)
Procedure, shortened: as §1

[12] = target: T12, ErbB2(h) (Homo sapiens, UniProt P04626); conditions: read-out: Inhibition(%) @ 1 µM RK-019
T12 construct: purchased Eurofins Discovery Services (KinaseProfiler)
Procedure, shortened: as §1

[13] = target: T13, FGFR2(h) (Homo sapiens, UniProt P21802)
T13 construct: purchased Eurofins Discovery Services (KinaseProfiler)
Procedure, shortened: as §1

[14] = target: T14, ALK4(h) (Homo sapiens, UniProt P36896); conditions: read-out: Inhibition(%) @ 1 µM RK-019
T14 construct: purchased Eurofins Discovery Services (KinaseProfiler)
Procedure, shortened: as §1

[15] = target: T15, BrSK1(h) (Homo sapiens, UniProt Q8TDC3); conditions: read-out: Inhibition(%) @ 1 µM RK-019
T15 construct: purchased Eurofins Discovery Services (KinaseProfiler)
Procedure, shortened: as §1

[16] = target: T16, PKAcβ(h) (Homo sapiens, UniProt P22694); conditions: read-out: Inhibition(%) @ 1 µM RK-019
T16 construct: purchased Eurofins Discovery Services (KinaseProfiler)
Procedure, shortened: as §1

[17] = target: T17, cKit(D816V)(h) (Homo sapiens, UniProt P10721, D816V); conditions: read-out: Inhibition(%) @ 1 µM RK-019
T17 construct: purchased Eurofins Discovery Services (KinaseProfiler)
Procedure, shortened: as §1

[18] = target: T18, MAP4K4(h) (Homo sapiens, UniProt O95819); conditions: read-out: Inhibition(%) @ 1 µM RK-019
T18 construct: purchased Eurofins Discovery Services (KinaseProfiler)
Procedure, shortened: as §1

[19] = target: T19, CDK13/cyclinK(h) (Homo sapiens, UniProt Q14004); conditions: read-out: Inhibition(%) @ 1 µM RK-019
T19 construct: purchased Eurofins Discovery Services (KinaseProfiler)
Procedure, shortened: as §1

[20] = target: T20, MLK2(h) (Homo sapiens, UniProt Q02779); conditions: read-out: Inhibition(%) @ 1 µM RK-019
T20 construct: purchased Eurofins Discovery Services (KinaseProfiler)
Procedure, shortened: as §1

[21] = target: T21, CHK2(h) (Homo sapiens, UniProt O96017); conditions: read-out: Inhibition(%) @ 1 µM RK-019
T21 construct: purchased Eurofins Discovery Services (KinaseProfiler)
Procedure, shortened: as §1

[22] = target: T22, DNA-PK(h) (Homo sapiens, UniProt P78527); conditions: read-out: Inhibition(%) @ 1 µM RK-019
T22 construct: purchased Eurofins Discovery Services (KinaseProfiler)
Procedure, shortened: as §1

[23] = target: T23, Snk(h) (Homo sapiens, UniProt Q9NYY3); conditions: read-out: Inhibition(%) @ 1 µM RK-019
T23 construct: purchased Eurofins Discovery Services (KinaseProfiler)
Procedure, shortened: as §1

[24] = target: T24, IR(h), activated (Homo sapiens, UniProt P06213); conditions: read-out: Inhibition(%) @ 1 µM RK-019
T24 construct: purchased Eurofins Discovery Services (KinaseProfiler)
Procedure, shortened: as §1

[25] = target: T25, Lyn(h) (Homo sapiens, UniProt P07948)
T25 construct: purchased Eurofins Discovery Services (KinaseProfiler)
Procedure, shortened: as §1

[26] = target: T26, DDR2(h) (Homo sapiens, UniProt Q16832); conditions: read-out: Inhibition(%) @ 1 µM RK-019
T26 construct: purchased Eurofins Discovery Services (KinaseProfiler)
Procedure, shortened: as §1

[27] = target: T27, PDGFRα(D842V)(h) (Homo sapiens, UniProt P16234, D842V); conditions: read-out: Inhibition(%) @ 1 µM RK-019
T27 construct: purchased Eurofins Discovery Services (KinaseProfiler)
Procedure, shortened: as §1

[28] = target: T28, IRE1(h) (Homo sapiens, UniProt O75460); conditions: read-out: Inhibition(%) @ 1 µM RK-019
T28 construct: purchased Eurofins Discovery Services (KinaseProfiler)
Procedure, shortened: as §1

[29] = target: T29, MYLK2(h) (Homo sapiens, UniProt Q9H1R3); conditions: read-out: Inhibition(%) @ 1 µM RK-019
T29 construct: purchased Eurofins Discovery Services (KinaseProfiler)
Procedure, shortened: as §1

[30] = target: T30, VRK1(h) (Homo sapiens, UniProt Q99986); conditions: read-out: Inhibition(%) @ 1 µM RK-019
T30 construct: purchased Eurofins Discovery Services (KinaseProfiler)
Procedure, shortened: as §1

[31] = target: T31, EGFR(L861Q)(h) (Homo sapiens, UniProt P00533, L861Q); conditions: read-out: Inhibition(%) @ 1 µM RK-019
T31 construct: purchased Eurofins Discovery Services (KinaseProfiler)
Procedure, shortened: as §1

[32] = target: T32, PDGFRα(V561D)(h) (Homo sapiens, UniProt P16234, V561D); conditions: read-out: Inhibition(%) @ 1 µM RK-019
T32 construct: purchased Eurofins Discovery Services (KinaseProfiler)
Procedure, shortened: as §1

[33] = target: T33, Met(h) (Homo sapiens, UniProt P08581); conditions: read-out: Inhibition(%) @ 1 µM RK-019
T33 construct: purchased Eurofins Discovery Services (KinaseProfiler)
Procedure, shortened: as §1

[34] = target: T34, CDK6/cyclinD3(h) (Homo sapiens, UniProt Q00534); conditions: read-out: Inhibition(%) @ 1 µM RK-019
T34 construct: purchased Eurofins Discovery Services (KinaseProfiler)
Procedure, shortened: as §1

[35] = target: T35, NUAK2(h) (Homo sapiens, UniProt Q9H093); conditions: read-out: Inhibition(%) @ 1 µM RK-019
T35 construct: purchased Eurofins Discovery Services (KinaseProfiler)
Procedure, shortened: as §1

[36] = target: T36, GRK1(h) (Homo sapiens, UniProt Q15835); conditions: read-out: Inhibition(%) @ 1 µM RK-019
T36 construct: purchased Eurofins Discovery Services (KinaseProfiler)
Procedure, shortened: as §1

T25 sequence (P07948 whole entry): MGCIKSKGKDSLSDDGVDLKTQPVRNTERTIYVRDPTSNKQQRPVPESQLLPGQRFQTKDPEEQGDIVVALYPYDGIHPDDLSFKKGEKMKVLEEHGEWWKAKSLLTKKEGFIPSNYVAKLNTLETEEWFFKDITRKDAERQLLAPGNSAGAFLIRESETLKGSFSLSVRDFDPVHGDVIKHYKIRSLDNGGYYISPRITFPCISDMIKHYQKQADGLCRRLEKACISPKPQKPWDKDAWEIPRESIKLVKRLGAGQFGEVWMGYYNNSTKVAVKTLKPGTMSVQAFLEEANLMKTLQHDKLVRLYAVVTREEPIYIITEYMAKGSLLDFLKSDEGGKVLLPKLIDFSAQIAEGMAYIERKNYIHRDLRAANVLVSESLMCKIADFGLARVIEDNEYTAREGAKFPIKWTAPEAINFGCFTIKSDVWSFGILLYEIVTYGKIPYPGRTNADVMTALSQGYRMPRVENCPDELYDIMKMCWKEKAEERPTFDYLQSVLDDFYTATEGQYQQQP
T13 sequence (P21802 22-821): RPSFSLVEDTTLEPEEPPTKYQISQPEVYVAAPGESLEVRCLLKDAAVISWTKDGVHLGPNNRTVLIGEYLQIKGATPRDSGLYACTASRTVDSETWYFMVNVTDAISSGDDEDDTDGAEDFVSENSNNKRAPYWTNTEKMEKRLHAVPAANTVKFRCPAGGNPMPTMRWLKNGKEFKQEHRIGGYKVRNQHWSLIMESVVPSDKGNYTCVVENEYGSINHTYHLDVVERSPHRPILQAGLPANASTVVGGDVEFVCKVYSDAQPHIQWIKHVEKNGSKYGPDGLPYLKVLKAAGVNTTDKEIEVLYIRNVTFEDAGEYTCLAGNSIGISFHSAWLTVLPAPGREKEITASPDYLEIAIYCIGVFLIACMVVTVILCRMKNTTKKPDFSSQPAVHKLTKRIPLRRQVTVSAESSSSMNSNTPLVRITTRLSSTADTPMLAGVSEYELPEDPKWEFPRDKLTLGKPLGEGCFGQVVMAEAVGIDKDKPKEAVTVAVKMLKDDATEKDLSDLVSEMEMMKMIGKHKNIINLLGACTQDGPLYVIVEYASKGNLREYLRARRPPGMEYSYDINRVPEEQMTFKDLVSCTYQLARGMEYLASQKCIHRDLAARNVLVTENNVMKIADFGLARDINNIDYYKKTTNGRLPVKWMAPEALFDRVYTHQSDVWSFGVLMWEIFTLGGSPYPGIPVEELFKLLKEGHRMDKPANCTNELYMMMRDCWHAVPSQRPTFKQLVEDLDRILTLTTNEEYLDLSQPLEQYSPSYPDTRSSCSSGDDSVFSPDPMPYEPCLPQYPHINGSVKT
T23 sequence (Q9NYY3 whole entry): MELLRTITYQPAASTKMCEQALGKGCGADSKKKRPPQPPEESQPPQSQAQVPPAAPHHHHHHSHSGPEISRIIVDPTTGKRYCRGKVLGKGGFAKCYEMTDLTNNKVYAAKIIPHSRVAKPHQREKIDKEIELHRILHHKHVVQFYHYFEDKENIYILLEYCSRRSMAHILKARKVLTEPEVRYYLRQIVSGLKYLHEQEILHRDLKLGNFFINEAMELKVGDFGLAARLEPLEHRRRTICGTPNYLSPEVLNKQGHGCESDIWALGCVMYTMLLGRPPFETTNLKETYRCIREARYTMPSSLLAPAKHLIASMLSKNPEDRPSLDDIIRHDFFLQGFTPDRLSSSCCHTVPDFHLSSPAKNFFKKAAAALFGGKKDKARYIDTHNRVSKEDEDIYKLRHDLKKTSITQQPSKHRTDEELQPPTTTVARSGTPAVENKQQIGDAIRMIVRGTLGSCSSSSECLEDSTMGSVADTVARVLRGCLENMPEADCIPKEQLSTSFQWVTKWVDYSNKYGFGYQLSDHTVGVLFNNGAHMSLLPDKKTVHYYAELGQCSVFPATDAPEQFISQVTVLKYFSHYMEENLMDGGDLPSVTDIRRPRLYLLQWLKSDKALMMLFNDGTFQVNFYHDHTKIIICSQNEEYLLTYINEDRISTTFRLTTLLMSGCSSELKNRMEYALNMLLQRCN
T19 sequence (Q14004 whole entry): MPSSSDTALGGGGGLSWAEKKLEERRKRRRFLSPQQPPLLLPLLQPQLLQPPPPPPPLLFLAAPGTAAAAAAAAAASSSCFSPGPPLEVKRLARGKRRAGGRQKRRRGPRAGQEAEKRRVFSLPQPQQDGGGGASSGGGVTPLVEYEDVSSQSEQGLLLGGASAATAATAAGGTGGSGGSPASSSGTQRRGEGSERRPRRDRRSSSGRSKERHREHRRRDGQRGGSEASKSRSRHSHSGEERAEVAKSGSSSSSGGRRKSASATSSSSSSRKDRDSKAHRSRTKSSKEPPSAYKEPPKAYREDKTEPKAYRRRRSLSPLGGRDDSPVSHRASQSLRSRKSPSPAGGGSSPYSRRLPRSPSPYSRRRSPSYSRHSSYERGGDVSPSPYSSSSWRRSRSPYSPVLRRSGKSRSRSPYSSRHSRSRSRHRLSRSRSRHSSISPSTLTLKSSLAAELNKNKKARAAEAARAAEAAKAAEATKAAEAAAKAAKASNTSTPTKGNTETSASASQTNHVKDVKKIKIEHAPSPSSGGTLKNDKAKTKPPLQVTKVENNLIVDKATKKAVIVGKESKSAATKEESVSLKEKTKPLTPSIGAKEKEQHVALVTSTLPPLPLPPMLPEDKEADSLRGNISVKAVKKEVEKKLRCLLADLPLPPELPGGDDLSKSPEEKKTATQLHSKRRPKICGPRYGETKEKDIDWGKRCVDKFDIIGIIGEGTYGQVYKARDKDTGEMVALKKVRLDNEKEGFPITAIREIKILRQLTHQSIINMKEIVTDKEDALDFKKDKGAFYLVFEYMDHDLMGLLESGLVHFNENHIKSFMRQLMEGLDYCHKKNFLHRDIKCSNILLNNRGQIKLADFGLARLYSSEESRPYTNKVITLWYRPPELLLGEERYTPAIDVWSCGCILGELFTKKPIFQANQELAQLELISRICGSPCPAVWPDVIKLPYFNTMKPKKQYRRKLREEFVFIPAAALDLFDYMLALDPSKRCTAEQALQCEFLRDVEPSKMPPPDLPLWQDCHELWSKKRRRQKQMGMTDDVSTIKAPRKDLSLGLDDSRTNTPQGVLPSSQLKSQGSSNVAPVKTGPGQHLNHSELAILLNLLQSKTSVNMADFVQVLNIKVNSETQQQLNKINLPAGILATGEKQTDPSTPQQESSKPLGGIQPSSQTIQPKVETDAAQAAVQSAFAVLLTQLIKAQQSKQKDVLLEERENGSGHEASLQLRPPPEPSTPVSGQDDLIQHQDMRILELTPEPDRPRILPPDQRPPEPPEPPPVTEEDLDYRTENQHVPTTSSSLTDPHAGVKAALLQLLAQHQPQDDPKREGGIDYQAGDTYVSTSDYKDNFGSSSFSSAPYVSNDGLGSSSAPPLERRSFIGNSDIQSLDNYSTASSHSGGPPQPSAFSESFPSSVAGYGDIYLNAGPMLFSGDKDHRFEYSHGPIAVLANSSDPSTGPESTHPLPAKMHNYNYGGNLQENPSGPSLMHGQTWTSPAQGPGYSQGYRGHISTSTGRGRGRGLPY
T19 sequence (O75909 whole entry partner): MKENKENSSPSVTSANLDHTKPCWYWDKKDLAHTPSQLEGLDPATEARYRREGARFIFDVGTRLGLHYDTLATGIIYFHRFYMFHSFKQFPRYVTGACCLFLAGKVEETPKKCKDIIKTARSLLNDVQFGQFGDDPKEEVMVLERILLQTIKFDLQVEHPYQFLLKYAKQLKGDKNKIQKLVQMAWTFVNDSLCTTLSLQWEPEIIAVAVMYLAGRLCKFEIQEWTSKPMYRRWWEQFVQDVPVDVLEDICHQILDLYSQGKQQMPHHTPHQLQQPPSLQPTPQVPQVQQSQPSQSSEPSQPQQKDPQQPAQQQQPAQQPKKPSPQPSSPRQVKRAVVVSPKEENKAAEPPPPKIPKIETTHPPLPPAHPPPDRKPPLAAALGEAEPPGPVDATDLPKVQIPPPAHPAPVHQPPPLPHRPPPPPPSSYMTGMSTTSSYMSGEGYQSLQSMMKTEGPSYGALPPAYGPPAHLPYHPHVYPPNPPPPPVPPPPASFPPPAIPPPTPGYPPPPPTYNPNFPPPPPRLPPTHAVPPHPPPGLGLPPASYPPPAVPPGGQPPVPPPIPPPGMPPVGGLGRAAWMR
T7 sequence (Q96RR4 whole entry): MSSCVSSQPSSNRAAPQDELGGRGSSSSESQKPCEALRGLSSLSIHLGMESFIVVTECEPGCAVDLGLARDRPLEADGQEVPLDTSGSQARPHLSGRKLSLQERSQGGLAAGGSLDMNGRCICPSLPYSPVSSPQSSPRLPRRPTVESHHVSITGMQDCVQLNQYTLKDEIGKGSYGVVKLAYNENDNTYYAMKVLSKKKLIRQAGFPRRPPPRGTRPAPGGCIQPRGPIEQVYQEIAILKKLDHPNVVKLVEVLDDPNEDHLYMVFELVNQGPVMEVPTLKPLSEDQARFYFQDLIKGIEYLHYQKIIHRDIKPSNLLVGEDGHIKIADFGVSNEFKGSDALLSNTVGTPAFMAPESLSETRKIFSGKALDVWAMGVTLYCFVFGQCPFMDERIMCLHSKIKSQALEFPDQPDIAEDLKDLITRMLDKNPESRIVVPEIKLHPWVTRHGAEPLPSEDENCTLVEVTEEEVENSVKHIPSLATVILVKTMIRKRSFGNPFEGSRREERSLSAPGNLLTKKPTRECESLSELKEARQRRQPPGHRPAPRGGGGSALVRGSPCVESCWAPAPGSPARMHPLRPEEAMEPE
T11 sequence (Q9UIK4 whole entry): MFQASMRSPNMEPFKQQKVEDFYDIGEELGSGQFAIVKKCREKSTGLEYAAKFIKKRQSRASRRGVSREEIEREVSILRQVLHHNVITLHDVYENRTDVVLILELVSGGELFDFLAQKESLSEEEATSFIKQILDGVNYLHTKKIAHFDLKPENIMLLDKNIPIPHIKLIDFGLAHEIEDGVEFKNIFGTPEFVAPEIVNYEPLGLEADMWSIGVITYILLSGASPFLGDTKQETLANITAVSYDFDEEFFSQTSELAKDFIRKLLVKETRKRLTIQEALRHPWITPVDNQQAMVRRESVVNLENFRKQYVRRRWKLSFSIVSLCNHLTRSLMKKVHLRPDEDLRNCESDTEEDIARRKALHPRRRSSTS

COc1cc(OC)cc(N(CCN[C@H](C)CO)c2ccc3ncc(-c4cnn(C)c4)c(=O)n3c2)c1 [RK-019, (R)-7-((3,5-dimethoxyphenyl) (2-((1-hydroxypropan-2-yl)amino)ethyl)amino)-3-(1-methyl-1H-pyrazol-4-yl)-4H-pyrido [1,2-a]pyrimidin-4-one]
activity at 1 µM [1]: 106% | activity at 1 µM [2]: 108% | activity at 1 µM [3]: 119% | activity at 1 µM [4]: 90% | activity at 1 µM [5]: 106% | activity at 1 µM [6]: 100% | activity at 1 µM [7]: 95% | activity at 1 µM [8]: 108% | activity at 1 µM [9]: 89% | activity at 1 µM [10]: 100% | activity at 1 µM [11]: 97% | activity at 1 µM [12]: 94% | activity at 1 µM ([13]; FGFR2(h), read-out: Inhibition(%) @ 1 µM RK-019): 1% | inhibition at 1 µM ([13]; FGFR2, 1 µM, read-out: inhibition (hit in panel)): > 90% | activity at 1 µM [14]: 91% | activity at 1 µM [15]: 106% | activity at 1 µM [16]: 98% | activity at 1 µM [17]: 93% | activity at 1 µM [18]: 82% | activity at 1 µM [19]: 109% | activity at 1 µM [20]: 103% | activity at 1 µM [21]: 96% | activity at 1 µM [22]: 101% | activity at 1 µM [23]: 109% | activity at 1 µM [24]: 95% | inhibition at 1 µM ([25]; LYN, 1 µM, read-out: inhibition (hit in panel)): > 90% | activity at 1 µM ([25]; Lyn(h), read-out: Inhibition(%) @ 1 µM RK-019): 6% | activity at 1 µM [26]: 109% | activity at 1 µM [27]: 22% | activity at 1 µM [28]: 93% | activity at 1 µM [29]: 88% | activity at 1 µM [30]: 98% | activity at 1 µM [31]: 103% | activity at 1 µM [32]: 1% | activity at 1 µM [33]: 97% | activity at 1 µM [34]: 106% | activity at 1 µM [35]: 90% | activity at 1 µM [36]: 94%

Reference: article PMC9532703, “A novel small molecule RK-019 inhibits FGFR2-amplification gastric cancer cell proliferation and induces apoptosis in vitro and in vivo” (Frontiers in Pharmacology, 2022)
